Measured values reported in patent US9783543B2, “Aminoimidazopyridazines” (BAYER PHARMA AKTIENGESELLSCHAFT, priority 2012, dated 2017).
Where two headings read alike, the source gives them in different places.

Experiments:
human full-lengt MKNK1 = human full-lengt MKNK1 (Homo sapiens (Human), UniProt Q9BUB5, T344D); test: MKNK1 kinase assay (TR-FRET, 10 μM ATP); assay type: biochemical
Excerpt: MKNK1-inhibitory activity of compounds of the present invention was quantified employing the MKNK1 TR-FRET assay as described in the following paragraphs.
(§1) A recombinant fusion protein of Glutathione-S-Transferase (GST, N-terminally) and human full-lengt MKNK1 (amino acids 1-424 and T344D of accession number BAA 19885.1), expressed in insect cells using baculovirus expression system and purified via glutathione sepharose affinity chromatography, was purchased from Carna Biosciences (product no 02-145) and used as enzyme. As substrate for the kinase reaction the biotinylated peptide biotin-Ahx-[…] (C-terminus in amide form) was used which can be purchased e.g. form the company Biosyntan (Berlin-Buch, Germany).
(§2) For the assay 50 nL of a 100 fold concentrated solution of the test compound in DMSO was pipetted into a black low volume 384 well microtiter plate (Greiner Bio-One, Frickenhausen, Germany), 2 μL of a solution of MKNK1 in aqueous assay buffer [50 mM HEPES pH 7.5, 5 mM magnesium chloride, 1.0 mM dithiothreitol, 0.005% (v/v) Nonidet-P40 (Sigma)] was added and the mixture was incubated for 15 min at 22° C. to allow pre-binding of the test compounds to the enzyme before the start of the kinase reaction. Then the kinase reaction was started by the addition of 3 μL of a solution of adenosine-tri-phosphate (ATP, 16.7 μM=>final conc. in the 5 μL assay volume is 10 μM) and substrate (0.1 μM=>final conc. in the 5 μL assay volume is 0.06 μM) in assay buffer and the resulting mixture was incubated for a reaction time of 45 min at 22° C. The concentration of MKNK1 was adjusted depending of the activity of the enzyme lot and was chosen appropriate to have the assay in the linear range, typical concentrations were in the range of 0.05 μg/ml. The reaction was stopped by the addition of 5 μL of a solution of TR-FRET detection reagents (5 nM streptavidine-XL665 [Cisbio Bioassays, Codolet, France] and 1 nM anti-ribosomal protein S6 (pSer236)-antibody from Invitrogen [#44921G] and 1 nM LANCE EU-W1024 labeled ProteinG [Perkin-Elmer, product no. AD0071]) in an aqueous EDTA-solution (100 mM EDTA, 0.1% (w/v) bovine serum albumin in 50 mM HEPES pH 7.5).
(§3) The resulting mixture was incubated for 1 h at 22° C. to allow the formation of complex between the phosphorylated biotinylated peptide and the detection reagents. Subsequently the amount of phosphorylated substrate was evaluated by measurement of the resonance energy transfer from the Eu-chelate to the streptavidine-XL. Therefore, the fluorescence emissions at 620 nm and 665 nm after excitation at 350 nm were measured in a TR-FRET reader, e.g. a Rubystar (BMG Labtechnologies, Offenburg, Germany) or a Viewlux (Perkin-Elmer). The ratio of the emissions at 665 nm and at 622 nm was taken as the measure for the amount of phosphorylated substrate.

human full-length MKNK1 = human full-length MKNK1 (Homo sapiens (Human), UniProt Q9BUB5, T344D); test: MKNK1 kinase high ATP assay (TR-FRET, 2 mM ATP); assay type: biochemical
human full-length MKNK1, sequence (Q9BUB5 other isoform, or with tags, fused parts or gaps T344D): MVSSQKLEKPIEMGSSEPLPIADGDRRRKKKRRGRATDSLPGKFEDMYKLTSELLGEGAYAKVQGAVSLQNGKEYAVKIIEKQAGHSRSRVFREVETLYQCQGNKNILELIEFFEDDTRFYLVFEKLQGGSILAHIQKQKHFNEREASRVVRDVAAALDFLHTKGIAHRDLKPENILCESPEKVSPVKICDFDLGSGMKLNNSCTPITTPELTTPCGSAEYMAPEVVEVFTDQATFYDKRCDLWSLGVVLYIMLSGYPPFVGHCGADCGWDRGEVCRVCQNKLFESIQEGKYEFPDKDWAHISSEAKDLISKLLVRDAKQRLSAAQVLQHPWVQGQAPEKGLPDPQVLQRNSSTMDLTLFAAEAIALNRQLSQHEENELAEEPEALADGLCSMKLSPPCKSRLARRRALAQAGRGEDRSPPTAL
Description: MKNK1 Kinase High ATP Assay
MKNK1-inhibitory activity at high ATP of compounds of the present invention after their preincubation with MKNK1 was quantified employing the TR-FRET-based MKNK1 high ATP assay as described in the following paragraphs.
as §1, with “human full-length” for “human full-lengt”, “was used,” for “was used”, “e.g. from” for “e.g. form”
as §2, with “3.3 mM=>final” for “16.7 μM=>final”, “2 mM)” for “10 μM)”, “30” for “45”, “0.003 μg/mL.” for “0.05 μg/ml.”
as §3

[1] = read-out: IC50 MKNK1 (10 μM ATP), 15 min preincubation, GST-MKNK1 T344D
[2] = read-out: IC50 MKNK1 (2 mM ATP), 15 min preincubation, GST-MKNK1 T344D
[3] = 15 min preincubation, GST-MKNK1 T344D

human full-lengt MKNK1, sequence (Q9BUB5 other isoform, or with tags, fused parts or gaps T344D): as above

Row | SMILES | IC50 (human full-lengt MKNK1; [1]) [nM] | IC50 (human full-length MKNK1; [2]) [nM] | IC50 (human full-lengt MKNK1; [3]) [nM] | IC50 (human full-length MKNK1; [3]) [nM]
1 | O[C@@H]1CCCC[C@H]1Nc1ccc2ncc(-c3cc4ccccc4o3)n2n1 [Example 9, (1R,2R)-2-{[3-(1-Benzofuran-2-yl)imidazo[1,2-b]pyridazin-6-yl]amino}cyclohexanol] | 318 | 210 | – | –
2 | O[C@H]1CCCC[C@@H]1Nc1ccc2ncc(-c3cc4ccccc4o3)n2n1 [Example 8, (1S,2S)-2-{[3-(1-Benzofuran-2-yl)imidazo[1,2-b]pyridazin-6-yl]amino}cyclohexanol] | 126 | 94 | – | –
3 | O[C@@H]1CCC[C@@H]1Nc1ccc2ncc(-c3cc4ccccc4o3)n2n1 [Example 7, (1R,2S)-2-{[3-(1-Benzofuran-2-yl)imidazo[1,2-b]pyridazin-6-yl]amino}cyclopentanol] | 24 | 66 | – | –
4 | O[C@H]1CCC[C@@H]1Nc1ccc2ncc(-c3cc4ccccc4o3)n2n1 [Example 6, (1S,2S)-2-{[3-(1-Benzofuran-2-yl)imidazo[1,2-b]pyridazin-6-yl]amino}cyclopentanol] | 22 | 52 | – | –
5 | O[C@H]1CC[C@H](Nc2ccc3ncc(-c4cc5ccccc5o4)n3n2)CC1 [Example 10, trans-4-{[3-(1-Benzofuran-2-yl)imidazo[1,2-b]pyridazin-6-yl]amino}cyclohexanol] | 12 | 31 | – | –
6 | O[C@H]1C[C@H](Nc2ccc3ncc(-c4cc5cnccc5o4)n3n2)C1 [Example 11, trans-3-{[3-(Furo[3,2-c]pyridin-2-yl)imidazo[1,2-b]pyridazin-6-yl]amino}cyclobutanol] | 14 | 52 | – | –
7 | O[C@@H]1CCCC[C@@H]1Nc1ccc2ncc(-c3cc4ccccc4o3)n2n1 [Example 5, (1R,2S)-2-{[3-(1-Benzofuran-2-yl)imidazo[1,2-b]pyridazin-6-yl]amino}cyclohexanol] | 42 | 49 | – | –
8 | OC[C@H]1C[C@H](Nc2ccc3ncc(-c4cc5ccccc5o4)n3n2)C1 [Example 1, (trans-3-{[3-(1-Benzofuran-2-yl)imidazo[1,2-b]pyridazin-6-yl]amino}cyclobutyl)methanol] | 8 | 11 | – | –
9 | O[C@H]1C[C@H](CNc2ccc3ncc(-c4cc5ccccc5o4)n3n2)C1 [Example 2, trans-3-({[3-(1-Benzofuran-2-yl)imidazo[1,2-b]pyridazin-6-yl]amino}methyl)-cyclobutanol] | – | – | 9 | 21
10 | O[C@H]1CCC[C@H]1Nc1ccc2ncc(-c3cc4ccccc4o3)n2n1 [Example 3, (1S,2R)-2-{[3-(1-Benzofuran-2-yl)imidazo[1,2-b]pyridazin-6-yl]amino}cyclopentanol] | 10 | 30 | – | –
11 | O[C@@H]1CCC[C@H]1Nc1ccc2ncc(-c3cc4ccccc4o3)n2n1 [Example 4, (1R,2R)-2-{[3-(1-Benzofuran-2-yl)imidazo[1,2-b]pyridazin-6-yl]amino}cyclopentanol] | 14 | 41 | – | –
